Data on 5 molecules can be found in paper PMC7434922, “Key role of quinone in the mechanism of respiratory complex I” (Nature Communications, 2020).

Assay [1] concerns the target T1, T. thermophilus complex I (NADH/FMN site, subunit Nqo1) (Thermus thermophilus, UniProt Q56222).
T1 construct: same complex as P1, native from HB8 membranes; crystals with added recombinant His-tagged Nqo16; cryo-EM samples without Nqo16 (15 subunits); with NADH-quinone oxidoreductase subunit 2; NADH-quinone oxidoreductase subunit 3; NADH-quinone oxidoreductase subunit 4; NADH-quinone oxidoreductase subunit 5; NADH-quinone oxidoreductase subunit 6; NADH-quinone oxidoreductase subunit 7; NADH-quinone oxidoreductase subunit 8; NADH-quinone oxidoreductase subunit 9; NADH-quinone oxidoreductase subunit 10; NADH-quinone oxidoreductase subunit 11; NADH-quinone oxidoreductase subunit 12; NADH-quinone oxidoreductase subunit 13; NADH-quinone oxidoreductase subunit 14; NADH-quinone oxidoreductase subunit 15; NADH-quinone oxidoreductase subunit 16
T1 sequence (Q56222 1-438): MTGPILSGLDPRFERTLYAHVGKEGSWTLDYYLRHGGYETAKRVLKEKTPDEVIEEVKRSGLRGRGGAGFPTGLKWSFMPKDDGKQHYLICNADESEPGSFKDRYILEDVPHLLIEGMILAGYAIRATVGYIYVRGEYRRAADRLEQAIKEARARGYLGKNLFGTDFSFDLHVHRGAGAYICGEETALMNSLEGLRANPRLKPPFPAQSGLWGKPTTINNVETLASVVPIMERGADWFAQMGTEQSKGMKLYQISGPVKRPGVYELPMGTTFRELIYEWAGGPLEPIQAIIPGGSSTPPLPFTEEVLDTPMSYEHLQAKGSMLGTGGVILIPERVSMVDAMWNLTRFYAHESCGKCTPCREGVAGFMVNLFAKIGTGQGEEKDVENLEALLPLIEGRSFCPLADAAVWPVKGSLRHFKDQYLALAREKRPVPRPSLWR
T1 sequence (Q56221 2-181 partner): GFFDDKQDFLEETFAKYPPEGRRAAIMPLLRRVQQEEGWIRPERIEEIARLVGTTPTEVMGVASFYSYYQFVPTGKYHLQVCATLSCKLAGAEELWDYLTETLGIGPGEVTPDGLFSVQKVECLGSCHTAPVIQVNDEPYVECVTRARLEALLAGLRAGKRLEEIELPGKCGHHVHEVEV
T1 sequence (Q56223 1-783 partner): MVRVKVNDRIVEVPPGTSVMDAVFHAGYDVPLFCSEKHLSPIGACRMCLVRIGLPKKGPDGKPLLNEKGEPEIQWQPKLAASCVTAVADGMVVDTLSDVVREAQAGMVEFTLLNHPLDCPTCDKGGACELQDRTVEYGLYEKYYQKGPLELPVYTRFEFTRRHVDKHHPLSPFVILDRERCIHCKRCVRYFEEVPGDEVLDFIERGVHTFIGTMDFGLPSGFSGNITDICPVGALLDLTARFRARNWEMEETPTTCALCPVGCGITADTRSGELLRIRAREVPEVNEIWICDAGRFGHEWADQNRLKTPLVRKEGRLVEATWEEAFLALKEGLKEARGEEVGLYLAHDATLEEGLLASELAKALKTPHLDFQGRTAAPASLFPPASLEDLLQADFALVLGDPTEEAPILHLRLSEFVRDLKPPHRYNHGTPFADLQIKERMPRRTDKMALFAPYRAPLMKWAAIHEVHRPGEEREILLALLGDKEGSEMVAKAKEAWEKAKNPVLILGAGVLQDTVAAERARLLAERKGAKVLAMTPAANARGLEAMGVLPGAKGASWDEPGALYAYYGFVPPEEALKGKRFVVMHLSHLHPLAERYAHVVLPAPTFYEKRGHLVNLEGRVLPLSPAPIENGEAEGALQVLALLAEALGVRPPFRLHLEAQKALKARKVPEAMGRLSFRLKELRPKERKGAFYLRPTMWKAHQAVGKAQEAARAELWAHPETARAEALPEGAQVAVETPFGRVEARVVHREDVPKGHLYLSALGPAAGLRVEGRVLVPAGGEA
In words: X-ray crystal structure; also cryo-EM (6ZIY). The class given is binding. To be noted: crystal soaked 4.5 min in 20 mM NADH, 20 mM dithionite, anaerobic, pH 6.0.

Assay [2] deals with T2, T. thermophilus complex I (quinone site, Q-site) (Thermus thermophilus, UniProt Q56218+Q56220+Q60019).
T2 construct: gene nqo4; native intact complex purified from T. thermophilus HB8 membranes in TDM; 16 subunits, 550 kDa; for crystals recombinant His-tagged Nqo16 (E. coli) was added; activity preparation has sub-stoichiometric Nqo16; with NADH-quinone oxidoreductase subunit 1; NADH-quinone oxidoreductase subunit 2; NADH-quinone oxidoreductase subunit 3; NADH-quinone oxidoreductase subunit 5; NADH-quinone oxidoreductase subunit 7; NADH-quinone oxidoreductase subunit 9; NADH-quinone oxidoreductase subunit 10; NADH-quinone oxidoreductase subunit 11; NADH-quinone oxidoreductase subunit 12; NADH-quinone oxidoreductase subunit 13; NADH-quinone oxidoreductase subunit 14; NADH-quinone oxidoreductase subunit 15; NADH-quinone oxidoreductase subunit 16
Briefly: X-ray crystal structure. The class given is binding. To be noted: crystal soaked overnight in 500 uM DQ, pH 6.0; Q-site (Y87_4, H38_4).

In assay [3] the target is T1, T. thermophilus complex I (NADH/FMN site, subunit Nqo1). Briefly: X-ray crystal structure. The assay is classed as binding. To be noted: resident cofactor in Nqo1; same crystal.
Assay [4] concerns the target T3, Complex I subunit Nqo10 (Thermus thermophilus) (T. thermophilus HB8, UniProt Q56225 1-176).
T3 construct: Nqo10, core subunit of the membrane domain of respiratory complex I, Thermus thermophilus HB8; Endogenous subunit inside the crystallised intact complex; source: purified from T. thermophilus HB8 cells as part of intact complex I (anion exchange, cation exchange, gel filtration)
T3 sequence (looked up): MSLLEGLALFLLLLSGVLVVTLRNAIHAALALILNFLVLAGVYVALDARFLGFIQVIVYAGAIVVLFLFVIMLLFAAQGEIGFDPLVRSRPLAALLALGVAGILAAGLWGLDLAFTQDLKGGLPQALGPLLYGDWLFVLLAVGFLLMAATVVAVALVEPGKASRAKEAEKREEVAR
In words: crystal structure; intact complex I purified from T. thermophilus mixed with purified recombinant Nqo16 (1:0.2 CXI:Nqo16), sitting drop at 23 °C, 100 mM Bis-Tris pH 6.0, 19-25% PEG 4000, 100 mM KCl, 100 mM glutaric acid, detergents; native crystals and crystals soaked or co-crystallised with NADH, decylubiquinone, piericidin A, aureothin or pyridaben. To be noted: both partners purified.

Assay [5] has as its target T4, Complex I antiporter-like subunit Nqo14 (Thermus thermophilus) (T. thermophilus HB8, UniProt Q56229 1-427).
T4 construct: Nqo14, antiporter-like core subunit of the membrane domain of respiratory complex I, Thermus thermophilus HB8; Endogenous subunit inside the crystallised intact complex; source: purified from T. thermophilus HB8 cells as part of intact complex I (anion exchange, cation exchange, gel filtration)
T4 sequence (looked up): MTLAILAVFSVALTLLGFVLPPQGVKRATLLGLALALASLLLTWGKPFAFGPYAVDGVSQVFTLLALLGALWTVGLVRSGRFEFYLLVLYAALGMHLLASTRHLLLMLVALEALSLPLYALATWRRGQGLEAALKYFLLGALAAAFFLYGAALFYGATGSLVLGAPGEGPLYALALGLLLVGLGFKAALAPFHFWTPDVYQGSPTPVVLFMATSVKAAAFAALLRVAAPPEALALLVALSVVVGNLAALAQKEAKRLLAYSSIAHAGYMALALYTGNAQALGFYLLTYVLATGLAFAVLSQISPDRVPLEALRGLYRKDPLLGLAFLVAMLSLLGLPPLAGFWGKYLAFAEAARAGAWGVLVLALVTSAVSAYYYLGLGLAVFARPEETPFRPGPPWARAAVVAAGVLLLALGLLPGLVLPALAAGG
The assay is described as above. To be noted: both partners purified.

Assay [6] addresses T5, Complex I subunit Nqo4 (Thermus thermophilus) (T. thermophilus HB8, UniProt Q56220 1-409).
T5 construct: Nqo4, core subunit of the peripheral arm of respiratory complex I, Thermus thermophilus HB8; Endogenous subunit inside the crystallised intact complex; source: purified from T. thermophilus HB8 cells as part of intact complex I (anion exchange, cation exchange, gel filtration)
T5 sequence (looked up): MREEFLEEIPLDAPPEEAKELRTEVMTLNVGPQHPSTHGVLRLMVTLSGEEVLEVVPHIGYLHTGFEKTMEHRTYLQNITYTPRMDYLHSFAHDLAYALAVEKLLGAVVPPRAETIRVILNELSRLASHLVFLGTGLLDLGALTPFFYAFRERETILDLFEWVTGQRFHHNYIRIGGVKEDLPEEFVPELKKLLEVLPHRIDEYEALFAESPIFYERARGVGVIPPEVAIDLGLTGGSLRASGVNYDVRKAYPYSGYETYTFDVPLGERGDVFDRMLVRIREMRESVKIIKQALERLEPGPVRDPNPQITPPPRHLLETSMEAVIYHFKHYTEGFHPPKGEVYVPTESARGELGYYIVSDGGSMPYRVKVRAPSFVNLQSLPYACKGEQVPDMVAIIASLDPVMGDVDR
Described as above. To be noted: both partners purified.

For `NC(=O)C1=CN([C@@H]2O[C@H](COP(=O)(O)OP(=O)(O)OC[C@H]3O[C@@H](n4cnc5c(N)ncnc54)[C@H](O)[C@@H]3O)[C@@H](O)[C@H]2O)C=CC1` [NADH], the “X-ray crystal structure; also cryo-EM (6ZIY)” value in assay [1] is on record as “Our crystal structure of intact complex I with bound NADH confirms the binding mode”.

For the molecule `CCCCCCCCCCC1=C(C)C(=O)C(OC)=C(OC)C1=O` [DQ, decylubiquinone], the X-ray crystal structure entry in assay [2] is “DQ interacts mainly with the residues mentioned above with its hydrocarbon chain surrounded by”.

Regarding `Cc1cc2nc3c(=O)[nH]c(=O)nc-3n(C[C@H](O)[C@H](O)[C@H](O)COP(=O)(O)O)c2cc1C` [FMN, flavin-mononucleotide], in assay [3], the X-ray crystal structure result is “The FMN is coordinated by subunit Nqo1 at the deep end”.

B1: Complex I subunit Nqo11 (Thermus thermophilus) (natural protein, T. thermophilus HB8, UniProt Q56226 1-95, looked up)
chain: MSYLLTSALLFALGVYGVLTRRTAILVFLSIELMLNAANLSLVGFARAYGLDGQVAALMVIAVAAAEVAVGLGLIVAIFRHRESTAVDDLSELRG
notes: Nqo11, core subunit of the membrane domain of respiratory complex I, Thermus thermophilus HB8; Endogenous subunit inside the crystallised intact complex; source: purified from T. thermophilus HB8 cells as part of intact complex I (anion exchange, cation exchange, gel filtration)
On to B1, for which the binding result in assay [4] and in assay [5] was “binds” in each case.

B2: Complex I subunit Nqo8 (Thermus thermophilus) (natural protein, T. thermophilus HB8, UniProt Q60019 1-365, looked up)
chain: MTWSYPVDPYWMVALKALLVVVGLLTAFAFMTLIERRLLARFQVRMGPNRVGPFGLLQPLADAIKSIFKEDIVVAQADRFLFVLAPLISVVFALLAFGLIPFGPPGSFFGYQPWVINLDLGILYLFAVSELAVYGIFLSGWASGSKYSLLGSLRSSASLISYELGLGLALLAPVLLVGSLNLNDIVNWQKEHGWLFLYAFPAFLVYLIASMAEAARTPFDLPEAEQELVGGYHTEYSSIKWALFQMAEYIHFITASALIPTLFLGGWTMPVLEVPYLWMFLKIAFFLFFFIWIRATWFRLRYDQLLRFGWGFLFPLALLWFLVTALVVALDLPRTYLLYLSALSFLVLLGAVLYTPKPARKGGGA
notes: Nqo8, core subunit of the membrane domain of respiratory complex I, Thermus thermophilus HB8; Endogenous subunit inside the crystallised intact complex; source: purified from T. thermophilus HB8 cells as part of intact complex I (anion exchange, cation exchange, gel filtration)
On to B2, for which the binding result in assay [6] is “binds”.
